Where “and” joins values, the source holds several entries; their conditions need not be identical. Identical values can stand only once. Entries after “also recorded” stand apart in the source; their conditions may differ.
Experiments:
[1] = tested on: cerebellum; test: Ceramide, SM and HexCer levels in cerebellum; format: in vivo, mice;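 on Cer 18:1/24:0 content of cerebellum: pmol per mg cerebellum tissue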;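 on Cer 18:1/24:1 content of cerebellum: pmol per mg cerebellum tissue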;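 on Cer 18:2/18:0 content of cerebellum: pmol per mg cerebellum tissue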;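 on HexCer 18:1 content of cerebellum: pmol per mg cerebellum tissue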;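 on HexCer 20:1 content of cerebellum: pmol per mg cerebellum tissue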;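 on HexCer 22:1 content of cerebellum: pmol per mg cerebellum tissue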;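 on HexCer 24:0 content of cerebellum: pmol per mg cerebellum tissue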;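 on SM 32:1 content of cerebellum: pmol per mg cerebellum tissue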;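 on SM 34:2 content of cerebellum: pmol per mg cerebellum tissue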;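 on SM 36:1 content of cerebellum: pmol per mg cerebellum tissue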;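 on SM 36:2 content of cerebellum: pmol per mg cerebellum tissue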;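 on SM 40:1 content of cerebellum: pmol per mg cerebellum tissue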;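 on SM 40:2 content of cerebellum: pmol per mg cerebellum tissue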;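 on SM 42:1 content of cerebellum: pmol per mg cerebellum tissue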;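 on SM 42:2 content of cerebellum: pmol per mg cerebellum tissue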
From the text: Supplementary Figure 7. […] Ceramide, SM, and HexCer […]
levels in the cerebellum of vehicle- or P053-treated mice on a chow or HFD. N = 10 mice per group, except for chow vehicle group (n = 9). Mean ± SEM shown. No lipids were […]
comparisons. C18:0 HexCer was 45% lower in the P053-treated compared to the vehicle-treated HFD group (unadjusted P value = 0.02; adjusted value P = 0.16). Raw data for these figures is provided in Supplementary Data File 1.

[2] = tested on: C57BL6/J mice; test: Body composition (EchoMRI) and fat pad weights in mice on chow or HFD; format: in vivo
Experimental: Male C57BL6/J mice were obtained from the Animal Resources Centre in Perth (WA, Australia). […] Treatment was commenced at the same time as mice were randomised to dietary groups. The experiments were approved by the UNSW animal care and ethics committee (ACEC 15/48B), and followed guidelines issued by the National Health and Medical Research Council of Australia.
Body composition (lean mass and fat mass) was determined by EchoMRI-900 Body Composition Analyser (EchoMRI Corporation Pte Ltd, Singapore) in accordance with the manufacturer’s instructions.

[3] = tested on: SkM homogenates; test: 14C-palmitate oxidation in SkM homogenates of treated mice; format: in vivo; conditions: chow and HFD-fed mice, 6 weeks
Experimental: Tibialis muscles were homogenized in 19 volumes of 250 mM sucrose, 10 mM Tris-HCl and 1 mM EDTA, pH 7.4.

[4] = molecular target: T1, recombinant human sphingosine kinase 2 (Homo sapiens, UniProt Q9NRA0); test: Sphingosine kinase assay with NBD-dihydrosphingosine, TLC; format: biochemical; conditions: 10 μM
T1 construct: purchased R&D Systems
Experimental: Sphingosine kinase assays were performed using fluorescent NBD-dihydrosphingosine[63],[64]. […] Reactions were stopped with 100 μL methanol, and 5 μL amounts were resolved on Silica Gel 60 thin layer chromatography (TLC) plates using butanol:acetic acid:water (3:1:1). The fluorescent NBD-dihydrosphingosine 1-phosphate band was quantified using a BioRad ChemiDoc imaging system with excitation by UV light.
Supplementary Figure 2. […] Activity of recombinant
human sphingosine kinases 1 and 2 (SphK1 and 2) was assessed in the presence of 10 µM
Activity is expressed as a percentage of the vehicle control.

[5] = HFD + P053, individual mice, raw data for Supplementary Figure 7

T1 sequence (Q9NRA0 whole entry): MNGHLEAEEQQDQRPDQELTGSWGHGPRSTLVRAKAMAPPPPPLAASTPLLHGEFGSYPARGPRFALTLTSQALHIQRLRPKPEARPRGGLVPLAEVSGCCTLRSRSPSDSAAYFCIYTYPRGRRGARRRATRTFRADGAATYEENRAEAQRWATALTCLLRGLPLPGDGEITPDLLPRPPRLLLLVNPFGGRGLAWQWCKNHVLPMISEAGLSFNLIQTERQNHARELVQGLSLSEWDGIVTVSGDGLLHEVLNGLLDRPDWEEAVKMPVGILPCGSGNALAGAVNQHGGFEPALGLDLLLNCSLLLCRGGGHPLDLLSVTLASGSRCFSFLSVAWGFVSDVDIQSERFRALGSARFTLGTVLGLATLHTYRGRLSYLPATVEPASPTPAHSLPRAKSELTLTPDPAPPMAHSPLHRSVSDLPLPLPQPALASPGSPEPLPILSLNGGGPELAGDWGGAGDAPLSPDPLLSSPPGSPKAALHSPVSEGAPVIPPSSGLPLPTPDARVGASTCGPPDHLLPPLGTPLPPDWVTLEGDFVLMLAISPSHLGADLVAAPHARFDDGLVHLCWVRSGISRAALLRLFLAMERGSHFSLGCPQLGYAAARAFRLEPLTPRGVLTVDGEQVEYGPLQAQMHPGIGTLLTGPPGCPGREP

## C[C@@](N)(CO)CCc1ccc(OCc2ccc(Cl)c(Cl)c2)cc1 [P053, (S)-2-amino-4-(4-(3,4-dichlorobenzyloxy)phenyl)-2-methylbutan-1-ol]
[1]; [5]
  Cer 18:1/20:0 content of cerebellum: 9.681 and 8.421 and 28.463 and 10.3564 and 18.7569 and 5.821 and 8.037 and 34.6254 and 7.548 and 24.475
  Cer 18:1/22:0 content of cerebellum: 15.9533 and 14.996 and 57.2919 and 21.4543 and 38.4094 and 10.5899 and 9.986 and 74.6469 and 9.154 and 46.3627
  Cer 18:1/24:0 content of cerebellum: 36.0277 and 35.1841 and 132.359 and 47.5021 and 88.9579 and 25.0017 and 22.1183 and 201.705 and 15.8687 and 131.28
  Cer 18:1/24:1 content of cerebellum: 97.7004 and 105.297 and 370.02 and 145.116 and 239.743 and 56.9618 and 60.5027 and 471.673 and 50.6294 and 252.902
  Cer 18:2/18:0 content of cerebellum: 5.2575 and 7.26 and 15.0915 and 8.468 and 10.666 and 4.461 and 4.156 and 21.6288 and 3.082 and 13.66
  HexCer 16:0 content of cerebellum: 8.934 and 17.284 and 8.364 and 13.8417 and 14.6417 and 7.1271 and 5.255 and 9.259 and 5.878 and 7.654
  HexCer 18:0 content of cerebellum: 106.702 and 382.139 and 122.466 and 271.752 and 258.221 and 146.382 and 115.813 and 146.018 and 61.4581 and 111.285
  HexCer 18:1 content of cerebellum: 19.0333 and 51.9273 and 16.2259 and 33.0148 and 32.5326 and 25.3913 and 23.9698 and 16.5527 and 15.5439 and 16.7312
  HexCer 20:0 content of cerebellum: 25.9921 and 81.8108 and 22.9498 and 52.8818 and 49.4884 and 37.7023 and 27.8092 and 23.4231 and 13.0014 and 19.1491
  HexCer 20:1 content of cerebellum: 2.413 and 5.45 and 1.502 and 2.714 and 3.093 and 3.36 and 3.204 and 0.8678 and 1.872 and 1.364
  HexCer 22:0 content of cerebellum: 505.659 and 1204.39 and 420.547 and 840.893 and 660.332 and 669.272 and 501.784 and 427.814 and 264.729 and 391.884
  HexCer 22:1 content of cerebellum: 79.5132 and 228.816 and 78.1356 and 158.552 and 150.676 and 92.9587 and 63.0534 and 66.2392 and 42.1951 and 49.044
  HexCer 24:0 content of cerebellum: 2652.92 and 5943.48 and 2280.7 and 4343.65 and 3299.69 and 3289.82 and 2658.72 and 2324.32 and 1408.65 and 2090.2
  HexCer 24:1 content of cerebellum: 5027.14 and 9363.75 and 4512.26 and 7271.57 and 6673.35 and 6052.94 and 5424.24 and 3829.42 and 3500.76 and 3500.55
  SM 32:1 content of cerebellum: 9.976 and 12.4114 and 9.047 and 10.2584 and 10.5601 and 10.6625 and 8.862 and 9.432 and 8.153 and 9.013
  SM 34:1 content of cerebellum: 133.106 and 161.415 and 90.4808 and 115.694 and 117.777 and 135.794 and 123.089 and 72.6388 and 98.8077 and 73.1632
  SM 34:2 content of cerebellum: 5.986 and 10.8404 and 8.948 and 9.3676 and 9.279 and 9.028 and 5.849 and 7.187 and 3.938 and 7.222
  SM 36:1 content of cerebellum: 437.801 and 529.096 and 247.962 and 355.417 and 343.012 and 490.447 and 544.072 and 175.073 and 405.398 and 201.504
  SM 36:2 content of cerebellum: 35.911 and 106.46 and 51.4739 and 67.513 and 67.8953 and 51.6927 and 57.9458 and 40.9288 and 32.7758 and 44.6146
  SM 38:1 content of cerebellum: 151.251 and 204.797 and 99.8821 and 137.133 and 146.282 and 182.882 and 197.347 and 79.7159 and 145.438 and 91.2461
  SM 38:2 content of cerebellum: 6.1474 and 11.1901 and 6.7471 and 8.325 and 8.851 and 10.1186 and 6.052 and 4.124 and 3.938 and 4.099
  SM 40:1 content of cerebellum: 183.889 and 372.913 and 177.074 and 235.958 and 281.655 and 224.359 and 174.632 and 162.333 and 129.812 and 151.975
  SM 40:2 content of cerebellum: 54.9137 and 116.436 and 59.8853 and 73.425 and 86.9536 and 64.465 and 34.4644 and 47.3579 and 33.4194 and 39.329
  SM 42:1 content of cerebellum: 210.79 and 460.407 and 223.848 and 278.666 and 328.3 and 236.404 and 186.283 and 198.576 and 131.683 and 195.129
  SM 42:2 content of cerebellum: 687.51 and 1423.11 and 718.618 and 898.145 and 1023.47 and 688.732 and 582.437 and 593.074 and 472.141 and 503.36
[1]; HFD group, adjusted P = 0.16
  C18:0 HexCer in cerebellum, lower than vehicle: 45%
[1]; chow or HFD
  C18 ceramide or SM levels in cerebellum: did not affect
[2]; HFD, 5 mg/kg, 4–6 weeks
  whole-body fat mass and weight of individual white adipose depots: significantly reduced
[2]; both fat pads (inguinal and epididymal)
  reduction of the gain in fat pad mass on a HFD: 44%
[2]; with P053 treatment
  gain in epididymal fat pad weight, HFD compared to chow: 0.29 g
  gain in inguinal fat pad weight, HFD compared to chow: 0.15 g
[3]
  oxidation of 14C-palmitate in muscle homogenates: increased oxidation
[4]
  inhibition of sphingosine kinase 2: did not inhibit; also recorded: does not inhibit; also recorded: no inhibitory activity

— paper PMC6104039 (Nature Communications, 2018)
